Read-outs that look alike come from different tables or passages of the source.
Assays:
[1] = target: T1, PI3Kβ (Homo sapiens, UniProt P42338); assay: Enzyme binding assay (KINOMEscan, DiscoveRx); settings: PIK3Cβ_h, read-out: Kd PIK3Cβ_h
T1 construct: purchased DiscoveRx Corporation, San Diego (contract service, KINOMEscan)
Procedure: (§1) Enzyme Binding Assays (KINOMEscan®)
Kinase enzyme binding affinities of compounds disclosed herein were determined using the KINOMEscan technology performed by DiscoveRx Corporation, San Diego, Calif., USA (www.kinomescan.com). Table A reports the obtained Kd values (nM), with the Kd being the inhibitor binding constant: […]

[2] = tested on: Akt phosphorylated at Thr308 in PC-3 cells; assay: Cellular assay: phosphorylation of Akt at Thr308 in PC-3 cells (MSD ELISA); assay type: cell-based; settings: PC-3 cells, 60 min compound incubation, MSD ELISA, read-out: IC50 pAkt_Thr308
Procedure: (§2) Cellular activity of PI3KP inhibitors was determined by quantifying the phosphorylation of Akt in PC-3 cells. Akt phosphorylated at Ser473 and Thr308 were measured using an enzyme-linked immunosorbent assay (ELISA; Meso Scale Discovery (MSD), Gaithersburg. Md.) and specific primary antibodies from MSD.
(§3) On day 2, compound or DMSO (0.3%) was added and cells were further incubated for 60 min at 37° C. 5% CO2 in a total volume of 100 μl of medium.
(§4) The phosphoprotein assay was executed according to vendor instructions in the Phospho-Akt (Ser473) Assay Whole Cell Lysate Kit (MSD # K15100D-3) and the Phospho-Akt (Thr308) Assay Whole Cell Lysate Kit (MSD # K151DYD-3) using the lysis, blocking and wash buffer provided.
(§5) Briefly, at the end of the cell treatment period, media were removed by aspiration and adherent cells were lysed in 50 μl ice-cold lysis buffer. MSD plates are supplied pre-coated with capture antibodies for Phospho-Akt (Ser473 and Thr308). After blocking, lysates from tissue culture plates were added and plates were washed. Then, a solution containing the detection antibody (anti-total Akt conjugated with an electrochemiluminescent compound-MSD Sulfo-tag label) was added. The signals were detected using an MSD SECTOR Imager 6000 and are proportional to the phospho-Akt titres.
(§6) Data were processed. […] From these concentration-response curves, the IC50 values were calculated. Five concentrations were used for curve fitting.

[3] = target: T2, PI3Kδ (Homo sapiens, UniProt O00329); assay: Enzyme binding assay (KINOMEscan, DiscoveRx); settings: PIK3Cδ_h
T2 construct: purchased DiscoveRx Corporation, San Diego (contract service, KINOMEscan)
T2 sequence (O00329 1-1044): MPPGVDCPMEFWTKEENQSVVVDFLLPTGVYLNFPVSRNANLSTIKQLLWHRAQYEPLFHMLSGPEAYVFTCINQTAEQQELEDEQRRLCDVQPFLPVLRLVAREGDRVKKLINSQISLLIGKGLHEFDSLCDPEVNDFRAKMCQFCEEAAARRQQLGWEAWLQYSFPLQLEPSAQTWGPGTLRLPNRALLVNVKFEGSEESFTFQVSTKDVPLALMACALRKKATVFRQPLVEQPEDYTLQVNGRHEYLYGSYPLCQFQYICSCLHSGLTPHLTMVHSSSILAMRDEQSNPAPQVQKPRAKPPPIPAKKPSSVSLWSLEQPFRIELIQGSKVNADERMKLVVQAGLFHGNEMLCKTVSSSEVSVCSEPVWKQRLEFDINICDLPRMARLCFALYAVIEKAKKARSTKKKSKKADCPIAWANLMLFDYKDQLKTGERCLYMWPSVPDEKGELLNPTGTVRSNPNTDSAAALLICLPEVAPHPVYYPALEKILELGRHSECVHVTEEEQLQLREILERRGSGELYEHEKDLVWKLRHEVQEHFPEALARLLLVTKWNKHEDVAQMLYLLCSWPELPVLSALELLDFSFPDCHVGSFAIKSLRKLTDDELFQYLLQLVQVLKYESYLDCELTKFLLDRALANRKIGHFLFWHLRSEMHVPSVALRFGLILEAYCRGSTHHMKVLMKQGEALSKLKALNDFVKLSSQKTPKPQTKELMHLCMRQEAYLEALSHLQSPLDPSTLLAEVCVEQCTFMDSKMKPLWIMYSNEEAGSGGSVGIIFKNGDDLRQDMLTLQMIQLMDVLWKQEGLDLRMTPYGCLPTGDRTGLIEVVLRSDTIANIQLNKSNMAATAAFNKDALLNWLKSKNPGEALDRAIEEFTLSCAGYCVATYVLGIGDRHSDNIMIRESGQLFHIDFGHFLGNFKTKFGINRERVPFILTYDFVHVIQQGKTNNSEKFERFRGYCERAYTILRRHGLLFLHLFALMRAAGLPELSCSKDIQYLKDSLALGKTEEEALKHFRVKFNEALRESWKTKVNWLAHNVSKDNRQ
Procedure: as §1
(§7) Kinase enzyme binding affinities of compounds disclosed herein were determined using the KINOMEscan technology performed by DiscoveRx Corporation, San Diego, Calif., USA (www.kinomescan.com).

[4] = target: T3, kinase enzymes (Homo sapiens, UniProt P48736); assay: Enzyme binding assay (KINOMEscan, DiscoveRx), further kinases of Table A; settings: PIK3Cγ_h
T3 construct: purchased DiscoveRx Corporation, San Diego (contract service, KINOMEscan)
Procedure: as §1, §7

[5] = target: T4, kinase enzymes (Homo sapiens, UniProt P42345); assay: as above; settings: MTOR_h
T4 construct: purchased DiscoveRx Corporation, San Diego (contract service, KINOMEscan)
Procedure: as §1, §7

[6] = target: T5, kinase enzymes (Homo sapiens, UniProt P42336); assay: as above; settings: PIK3Cα_h
T5 construct: purchased DiscoveRx Corporation, San Diego (contract service, KINOMEscan)
Procedure: as §1, §7

[7] = tested on: Akt phosphorylated at Ser473 in PC-3 cells; assay: Cellular assay: phosphorylation of Akt at Ser473 in PC-3 cells (MSD ELISA); assay type: cell-based; settings: PC-3 cells, 60 min compound incubation, MSD ELISA, read-out: IC50 pAkt_S473
Procedure: as §2, §3, §4, §5, §6

T1 sequence (P42338 whole entry): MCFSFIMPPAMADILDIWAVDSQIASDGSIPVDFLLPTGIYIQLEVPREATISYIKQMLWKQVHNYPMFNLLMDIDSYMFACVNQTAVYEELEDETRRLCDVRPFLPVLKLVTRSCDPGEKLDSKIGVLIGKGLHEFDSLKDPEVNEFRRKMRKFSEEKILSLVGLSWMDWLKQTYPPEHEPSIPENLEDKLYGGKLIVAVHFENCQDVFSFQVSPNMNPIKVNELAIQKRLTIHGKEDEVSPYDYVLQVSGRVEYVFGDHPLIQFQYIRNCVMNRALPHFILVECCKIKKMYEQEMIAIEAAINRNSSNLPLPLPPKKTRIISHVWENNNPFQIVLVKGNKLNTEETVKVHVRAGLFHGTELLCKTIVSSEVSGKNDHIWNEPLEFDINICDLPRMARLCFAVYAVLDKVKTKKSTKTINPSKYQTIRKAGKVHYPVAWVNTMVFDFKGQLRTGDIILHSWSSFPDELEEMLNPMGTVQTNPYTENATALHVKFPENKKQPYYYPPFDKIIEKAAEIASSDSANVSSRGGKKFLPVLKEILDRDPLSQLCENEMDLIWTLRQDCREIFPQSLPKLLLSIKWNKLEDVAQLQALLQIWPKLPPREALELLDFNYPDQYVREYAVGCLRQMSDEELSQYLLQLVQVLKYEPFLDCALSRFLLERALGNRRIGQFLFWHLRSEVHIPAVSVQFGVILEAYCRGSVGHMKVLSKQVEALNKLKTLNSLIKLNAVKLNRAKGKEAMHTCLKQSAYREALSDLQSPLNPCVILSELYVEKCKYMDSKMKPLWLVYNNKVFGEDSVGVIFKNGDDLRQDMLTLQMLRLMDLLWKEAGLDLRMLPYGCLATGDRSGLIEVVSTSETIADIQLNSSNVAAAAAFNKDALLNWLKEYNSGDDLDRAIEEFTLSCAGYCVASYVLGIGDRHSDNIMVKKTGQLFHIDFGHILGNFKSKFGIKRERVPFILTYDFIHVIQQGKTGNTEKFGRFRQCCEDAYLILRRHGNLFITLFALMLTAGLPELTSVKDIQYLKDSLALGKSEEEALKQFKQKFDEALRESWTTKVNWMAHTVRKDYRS
T3 sequence (P48736 whole entry): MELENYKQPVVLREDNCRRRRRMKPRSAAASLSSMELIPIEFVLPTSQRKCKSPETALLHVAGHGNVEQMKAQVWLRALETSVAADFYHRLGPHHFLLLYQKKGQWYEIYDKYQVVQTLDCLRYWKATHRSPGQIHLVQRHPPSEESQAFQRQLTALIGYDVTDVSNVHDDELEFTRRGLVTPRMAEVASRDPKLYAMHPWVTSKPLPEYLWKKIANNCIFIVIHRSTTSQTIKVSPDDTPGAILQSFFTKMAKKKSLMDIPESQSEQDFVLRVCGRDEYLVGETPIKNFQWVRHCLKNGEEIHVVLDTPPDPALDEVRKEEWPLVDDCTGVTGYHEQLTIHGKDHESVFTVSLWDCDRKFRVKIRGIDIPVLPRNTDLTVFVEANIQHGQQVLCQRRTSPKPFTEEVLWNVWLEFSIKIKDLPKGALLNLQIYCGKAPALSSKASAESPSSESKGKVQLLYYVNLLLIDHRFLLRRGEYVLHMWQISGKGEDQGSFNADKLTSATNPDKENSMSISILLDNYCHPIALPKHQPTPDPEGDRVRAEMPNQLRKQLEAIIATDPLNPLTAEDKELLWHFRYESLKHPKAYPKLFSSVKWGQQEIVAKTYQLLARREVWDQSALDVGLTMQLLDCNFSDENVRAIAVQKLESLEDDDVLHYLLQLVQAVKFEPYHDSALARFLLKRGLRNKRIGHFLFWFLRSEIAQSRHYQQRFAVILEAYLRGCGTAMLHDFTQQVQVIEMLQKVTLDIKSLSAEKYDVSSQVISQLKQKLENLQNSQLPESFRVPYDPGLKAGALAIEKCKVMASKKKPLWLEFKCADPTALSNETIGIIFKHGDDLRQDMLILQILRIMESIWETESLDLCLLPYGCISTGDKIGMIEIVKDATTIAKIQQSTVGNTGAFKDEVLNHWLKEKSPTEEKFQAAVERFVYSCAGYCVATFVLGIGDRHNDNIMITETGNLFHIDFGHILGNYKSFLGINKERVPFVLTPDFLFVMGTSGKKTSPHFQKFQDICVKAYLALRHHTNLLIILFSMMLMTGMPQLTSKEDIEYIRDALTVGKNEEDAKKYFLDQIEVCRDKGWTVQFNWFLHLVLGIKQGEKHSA
T5 sequence (P42336 whole entry): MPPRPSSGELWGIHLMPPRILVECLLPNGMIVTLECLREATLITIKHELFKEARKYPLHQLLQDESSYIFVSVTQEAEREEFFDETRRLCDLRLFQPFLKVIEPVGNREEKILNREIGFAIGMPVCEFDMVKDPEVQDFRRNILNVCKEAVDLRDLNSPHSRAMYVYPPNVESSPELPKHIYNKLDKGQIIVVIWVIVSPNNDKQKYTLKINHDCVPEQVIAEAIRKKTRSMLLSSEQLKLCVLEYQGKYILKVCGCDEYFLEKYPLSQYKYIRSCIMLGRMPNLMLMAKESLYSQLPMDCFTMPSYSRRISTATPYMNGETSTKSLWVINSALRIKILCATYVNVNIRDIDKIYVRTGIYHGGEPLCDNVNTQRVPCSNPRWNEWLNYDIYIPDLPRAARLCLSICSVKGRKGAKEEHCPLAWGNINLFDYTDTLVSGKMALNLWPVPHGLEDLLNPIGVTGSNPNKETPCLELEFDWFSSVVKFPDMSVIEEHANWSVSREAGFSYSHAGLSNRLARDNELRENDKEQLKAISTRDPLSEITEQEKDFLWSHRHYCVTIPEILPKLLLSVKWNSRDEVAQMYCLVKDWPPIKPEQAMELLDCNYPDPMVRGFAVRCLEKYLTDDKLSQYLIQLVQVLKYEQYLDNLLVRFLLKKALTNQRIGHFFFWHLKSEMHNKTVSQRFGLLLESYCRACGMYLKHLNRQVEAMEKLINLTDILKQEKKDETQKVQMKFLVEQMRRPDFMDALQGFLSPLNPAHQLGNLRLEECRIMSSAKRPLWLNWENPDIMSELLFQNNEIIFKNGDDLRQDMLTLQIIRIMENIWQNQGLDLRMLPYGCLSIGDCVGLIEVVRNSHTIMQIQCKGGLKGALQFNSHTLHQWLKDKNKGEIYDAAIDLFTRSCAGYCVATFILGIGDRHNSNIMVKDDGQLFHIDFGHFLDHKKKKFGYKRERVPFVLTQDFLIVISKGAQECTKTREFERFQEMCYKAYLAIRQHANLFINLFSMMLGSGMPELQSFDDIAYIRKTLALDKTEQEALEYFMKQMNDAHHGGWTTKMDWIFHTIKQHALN

Structure (SMILES) | Kd [1] [nM] | IC50 [2] [nM] | Kd [3] [nM] | Kd [4] [nM] | Kd [5] [nM] | Kd [6] [nM] | IC50 [7] [nM] | IC50 ([2]; Homo sapiens, PC-3, 1 h) [nM] | IC50 ([7]; Homo sapiens, PC-3, 1 h) [nM]
CC(C)NCCN(C)C(=O)c1cc(NCc2cc(F)cc(F)c2)c2nc(N3CCOCC3)cnc2c1 [Compound 389] | 5 | – | 2190 | > 30200 | > 30200 | 3160 | – | 28 | 39
CC1CN(c2cnc3cc(C(=O)N(C)C)cc(N4CCCC4c4cc(F)cc(F)c4)c3n2)CCO1 (centres unmarked) [Compound 396] | 120 | – | 2040 | 20900 | > 30200 | 7760 | – | > 513 | > 513
O=C(NCCO)c1cc(NCc2cc(F)cc(F)c2)c2nc(N3CCOCC3)cnc2c1 [Compound 229] | 7 | – | 1740 | 20400 | 12600 | 3890 | – | 96 | 186
OC(CN1CCC1)c1cc(C2CCCN2c2cc(F)cc(F)c2)c2nc(N3CCOCC3)cnc2c1 (single isomer, unassigned) [Compound 95] | 0.5 | 18 | 178 | 1100 | > 30200 | 295 | 34 | – | –
CC(Oc1cccc(F)c1)c1cc(C(=O)N(C)C)cc2ncc(N3CCOCC3)nc12 (single isomer, unassigned) [Compound 339a] | 112 | 407 | 2090 | 10700 | > 30200 | 4570 | > 513 | – | –
COC(=O)c1cc(C2CCCN2c2cc(F)cc(F)c2)c2nc(N3CCOCC3)cnc2c1 (single isomer, unassigned) [Compound 252] | > 30200 | > 513 | > 30200 | > 30200 | > 30200 | > 30200 | > 513 | – | –
CC(C)NCCNC(=O)c1cc(C(C)Nc2ccc(F)c(F)c2)c2nc(N3CCOCC3)cnc2c1 (single isomer, unassigned) [Compound 364b] | 372 | > 513 | 7760 | 8130 | > 30200 | 7080 | > 513 | – | –
CN(C)C(=O)c1cc(N2CCC[C@@H]2c2cc(F)cc(F)c2)c2nc(C3=CCOCC3)cnc2c1 [Compound 398] | 257 | – | 5750 | > 30200 | > 30200 | 10700 | – | > 513 | > 513
CC(Oc1ccc(F)c(F)c1)c1cc(C(=O)N2CCN3CCC[C@H]3C2)cc2ncc(N3CCOCC3)nc12 (single isomer, unassigned) [Compound 369a] | 20 | 251 | 525 | > 30200 | 25100 | 7240 | – | – | ~363
CCN1CCN(C(=O)c2cc(C(C)Oc3cccc(F)c3)c3nc(N4CCOCC4)cnc3c2)CC1 (centres unmarked) [Compound 90] | 17 | – | 741 | 22900 | > 30200 | 9120 | – | > 513 | > 513

Other lines, results leading:

Kd [1] [nM] | IC50 [2] [nM] | Kd [3] [nM] | Kd [4] [nM] | Kd [5] [nM] | Kd [6] [nM] | IC50 [7] [nM] | IC50 ([2]; Homo sapiens, PC-3, 1 h) [nM] | IC50 ([7]; Homo sapiens, PC-3, 1 h) [nM] | Structure (SMILES)
4 | 11 | 234 | 5490 | > 30200 | 372 | 26 | – | – | CC(Nc1cc(F)cc(F)c1)c1cc(C(=O)N2CCNC(C(F)(F)F)C2)cc2ncc(N3CCOCC3)nc12 (single isomer, unassigned) [Compound 237c]
1 | 295 | 1070 | 16600 | > 30200 | 5250 | 398 | – | – | CC(Oc1cc(F)c(F)c(F)c1)c1cc(C(=O)N(C)C2CCNC2)cc2ncc(N3CCOCC3)nc12 (single isomer, unassigned) [Compound 404b]
186 | > 513 | 10200 | > 30200 | > 30200 | 24000 | 501 | – | – | CC(Oc1ccc(F)c(F)c1)c1cc(C(=O)N2CC[C@@H](N(C)C)C2)cc2ncc(N3CCOCC3)nc12 (single isomer, unassigned) [Compound 298b]
1510 | – | > 30200 | > 30200 | > 30200 | > 30200 | – | > 513 | > 513 | CC(Oc1cc(F)c(F)c(F)c1)c1cc(C(=O)N(C)C2CCNC2)cc2ncc(N3CCOCC3)nc12 (single isomer, unassigned) [Compound 404a]
26 | 204 | 6310 | 15100 | > 30200 | 17000 | 200 | – | – | CN[C@H]1CCN(C(=O)c2cc(C(C)Nc3cc(F)c(F)c(F)c3)c3nc(N4CCOCC4)cnc3c2)C1 (single isomer, unassigned) [Compound 297a]
1 | – | 275 | 955 | 3310 | 93 | – | > 513 | > 513 | CC(Nc1cc(F)cc(F)c1)c1cc(C(=O)NS(=O)(=O)C2CC2)cc2ncc(N3CCOCC3)nc12 (single isomer, unassigned) [Compound 219]
74 | > 513 | 7760 | > 30200 | > 30200 | 8710 | > 513 | – | – | CC(Nc1cc(F)cc(F)c1)c1cc(C(=O)N2CCNC(C(F)(F)F)C2)cc2ncc(N3CCOCC3)nc12 (single isomer, unassigned) [Compound 237b]
5 | – | 2000 | > 30200 | > 30200 | 4900 | – | ~85 | 151 | COC(=O)[C@H]1CCCN1C(=O)c1cc(C(C)Nc2cc(F)cc(F)c2)c2nc(N3CCOCC3)cnc2c1 (some centres unmarked) [Compound 272]
4 | – | 3890 | 6760 | 26900 | 813 | – | 24 | 44 | CC(Nc1cc(F)cc(F)c1)c1cc(C(=O)NC[C@H](C)O)cc2ncc(N3CCOCC3)nc12 (single isomer, unassigned) [Compound 246a]
14800 | > 513 | > 30200 | > 30200 | > 30200 | > 30200 | > 513 | – | – | CC(Nc1cc(F)c(F)c(F)c1)c1cc(C(=O)NCC(C)(C)O)cc2ncc(N3CCOCC3)nc12 (single isomer, unassigned) [Compound 292b]

Reference: patent US10526316B2, “Quinoxaline and pyridopyrazine derivatives as PI3Kβ inhibitors” (Janssen Pharmaceutica NV, priority 2015, dated 2020)
